According to ChEMBL document CHEMBL1201862, “PubChem BioAssay data set” (2004):
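A five-concentration, 48-hour dose response in 96-well plates underlies each endpoint, interpolated linearly between surrounding concentrations. GI50 = concentration required for 50% inhibition of growth.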 Calls of active or inactive are those of the source. Rule as the data show it: active = GI50 up to about 1.1 µM and inactive = higher.

How the values were obtained:
Assay in all cases: NCI-60 cell line screen, 48 h
MDA-MB-435 = system: MDA-MB-435
SK-MEL-28 = system: SK-MEL-28
NCI-H226 = system: NCI-H226
MDA-MB-231 = system: MDA-MB-231
NCI/ADR-RES = system: NCI/ADR-RES
786-0 = system: 786-0
IGROV-1 = system: IGROV-1
OVCAR-8 = system: OVCAR-8
HT-29 = system: HT-29
RPMI-8226 = system: RPMI-8226
RXF 393 = system: RXF 393
HL-60 = system: HL-60
SF-268 = system: SF-268
Hs-578T = system: Hs-578T
HOP-92 = system: HOP-92
OVCAR-3 = system: OVCAR-3
HCT-15 = system: HCT-15
LOX IMVI = system: LOX IMVI
TK-10 = system: TK-10
SNB-19 = system: SNB-19

SMILES | GI50 (MDA-MB-435) | GI50 (SK-MEL-28) | GI50 (NCI-H226) | GI50 (MDA-MB-231) | GI50 (NCI/ADR-RES) | GI50 (786-0) | GI50 (IGROV-1) | GI50 (OVCAR-8) | GI50 (HT-29) | GI50 (RPMI-8226) | GI50 (RXF 393) | GI50 (HL-60) | GI50 (SF-268) | GI50 (Hs-578T) | GI50 (HOP-92) | GI50 (OVCAR-3) | GI50 (HCT-15) [µM] | GI50 (LOX IMVI) | GI50 (TK-10) | GI50 (SNB-19)
Cc1c([N+](=O)[O-])ccc2c(NCCCN(C)C)ccnc12 | 17.5 µM (inactive) | 25.5 µM (inactive) | 30.4 µM (inactive) | 23 µM (inactive) | 28.2 µM (inactive) | 26.8 µM (inactive) | 22.2 µM (inactive) | 25.2 µM (inactive) | 14.2 µM (inactive) | 67.6 µM (inactive) | 23.9 µM (inactive) | > 100 µM (inactive) | 37 µM (inactive) | 24 µM (inactive) | 16.5 µM (inactive) | 21 µM (inactive) | 17.3 | 15.7 µM (inactive) | 27.5 µM (inactive) | 
Cc1ccc(/N=N/c2c(O)ccc3cc(S(=O)(=O)O)ccc23)c(C)c1 | > 100 µM (inactive) | > 100 µM (inactive) | > 100 µM (inactive) | > 100 µM (inactive) | > 100 µM (inactive) | > 100 µM (inactive) | > 100 µM (inactive) | > 100 µM (inactive) | > 100 µM (inactive) |  | > 100 µM (inactive) | 92.9 µM (inactive) | > 100 µM (inactive) | > 100 µM (inactive) | > 100 µM (inactive) | > 100 µM (inactive) | > 100 |  | > 100 µM (inactive) | > 100 µM (inactive)
O=c1oc2cc(/N=C/c3ccccc3Cl)ccc2c2ccccc12 | > 100 µM (inactive) | > 100 µM (inactive) | > 100 µM (inactive) | > 100 µM (inactive) | > 100 µM (inactive) | > 100 µM (inactive) | > 100 µM (inactive) | > 100 µM (inactive) | > 100 µM (inactive) | > 100 µM (inactive) | > 100 µM (inactive) | 57.1 µM (inactive) | 87.1 µM (inactive) | > 100 µM (inactive) | > 100 µM (inactive) | > 100 µM (inactive) | > 100 | 87.3 µM (inactive) |  | 97.5 µM (inactive)
COc1cc2c(c(OC)c1OC)-c1ccc(SC)c(=O)cc1[C@@H](OC(=O)c1ccncc1)CC2 | < 0.01 µM (active) |  | < 0.01 µM (active) | < 0.01 µM (active) | < 0.01 µM (active) | < 0.01 µM (active) | < 0.01 µM (active) | < 0.01 µM (active) | < 0.01 µM (active) | < 0.01 µM (active) | 7.78 µM (inactive) |  | < 0.01 µM (active) | < 0.01 µM (active) | 30.1 µM (inactive) | < 0.01 µM (active) | < 0.01 | < 0.01 µM (active) | 4.92 µM (inactive) | < 0.01 µM (active)
CC(C)[Si](CC1=CCCCC12C(=O)N(COCC[Si](C)(C)C)c1ccccc12)(C(C)C)C(C)C (configuration not stated) | > 100 µM (inactive) | 92.5 µM (inactive) | > 100 µM (inactive) | > 100 µM (inactive) | > 100 µM (inactive) | > 100 µM (inactive) | > 100 µM (inactive) | 89.3 µM (inactive) | 51.6 µM (inactive) | > 100 µM (inactive) | 20.6 µM (inactive) |  | > 100 µM (inactive) | > 100 µM (inactive) | 89.3 µM (inactive) | 39.4 µM (inactive) | > 100 | 29.2 µM (inactive) | > 100 µM (inactive) | 66.5 µM (inactive)
CCOC(=O)c1cc(C2(O)CCN(CC(C)CC)C2=O)c(-c2cc(C)no2)[nH]1 (configuration not stated) | > 100 µM (inactive) | > 100 µM (inactive) | > 100 µM (inactive) | > 100 µM (inactive) | > 100 µM (inactive) | > 100 µM (inactive) | > 100 µM (inactive) | > 100 µM (inactive) | > 100 µM (inactive) | > 100 µM (inactive) | > 100 µM (inactive) | > 100 µM (inactive) | > 100 µM (inactive) | > 100 µM (inactive) | > 100 µM (inactive) | > 100 µM (inactive) | > 100 | > 100 µM (inactive) |  | > 100 µM (inactive)
C/C=N\n1c(C)c(C#N)c(C#N)c1N | > 100 µM (inactive) |  | > 100 µM (inactive) | > 100 µM (inactive) | > 100 µM (inactive) | > 100 µM (inactive) | > 100 µM (inactive) | > 100 µM (inactive) | > 100 µM (inactive) | > 100 µM (inactive) | > 100 µM (inactive) | > 100 µM (inactive) | > 100 µM (inactive) | > 100 µM (inactive) | > 100 µM (inactive) | > 100 µM (inactive) | > 100 | > 100 µM (inactive) | > 100 µM (inactive) | > 100 µM (inactive)
CC(=O)Oc1ccc(/C=C/C(=O)O[C@@H](C)[C@H](C)OC(=O)/C=C/c2ccc(OC(C)=O)c(OC(C)=O)c2)cc1OC(C)=O | 12.2 µM (inactive) | 15.3 µM (inactive) |  | 39.9 µM (inactive) | 22.2 µM (inactive) | 12.1 µM (inactive) | 5.75 µM (inactive) | 11.5 µM (inactive) |  | 4.75 µM (inactive) | 13.6 µM (inactive) |  | 18.4 µM (inactive) | 11 µM (inactive) | 20.2 µM (inactive) | 5.15 µM (inactive) | 6.31 | 6.61 µM (inactive) | 21.2 µM (inactive) | 18.9 µM (inactive)
Oc1cc(N2CCCC2)ccc1/C=N/N1C(=S)N(c2ccccc2)C(=N\c2ccccc2)/C1=N/c1ccccc1 | > 100 µM (inactive) | > 100 µM (inactive) | 58.6 µM (inactive) | 48 µM (inactive) | > 100 µM (inactive) | > 100 µM (inactive) | > 100 µM (inactive) | > 100 µM (inactive) | > 100 µM (inactive) | > 100 µM (inactive) | 14.2 µM (inactive) |  | > 100 µM (inactive) | 60.4 µM (inactive) | 63.2 µM (inactive) | > 100 µM (inactive) | > 100 |  | 75 µM (inactive) | 51.4 µM (inactive)
COC(=O)C1CCN(C(=O)OC(C)(C)C)CC1 | > 100 µM (inactive) | > 100 µM (inactive) |  | > 100 µM (inactive) | > 100 µM (inactive) | > 100 µM (inactive) | > 100 µM (inactive) | > 100 µM (inactive) | > 100 µM (inactive) | > 100 µM (inactive) |  | > 100 µM (inactive) | > 100 µM (inactive) | > 100 µM (inactive) | > 100 µM (inactive) | > 100 µM (inactive) | > 100 | > 100 µM (inactive) | > 100 µM (inactive) | > 100 µM (inactive)
CCOc1ccc(NC(=O)C(=O)Nn2c(N)nnc2N)cc1 | > 100 µM (inactive) | > 100 µM (inactive) | > 100 µM (inactive) | > 100 µM (inactive) | > 100 µM (inactive) | > 100 µM (inactive) | > 100 µM (inactive) | > 100 µM (inactive) | > 100 µM (inactive) | > 100 µM (inactive) | > 100 µM (inactive) | > 100 µM (inactive) | > 100 µM (inactive) | > 100 µM (inactive) | > 100 µM (inactive) | > 100 µM (inactive) | > 100 | > 100 µM (inactive) | > 100 µM (inactive) | 
COc1ccc(N2C(=O)C3ON(Cc4ccc(CC(N)=O)cc4)C(c4c5ccccc5c(C)c5ccccc45)C3C2=O)cc1 (configuration not stated) | 27.2 µM (inactive) | > 100 µM (inactive) |  | 36.5 µM (inactive) | 35.8 µM (inactive) | 30 µM (inactive) | 27.3 µM (inactive) | 27 µM (inactive) | 12.9 µM (inactive) |  | 14.2 µM (inactive) | 14.9 µM (inactive) | 38.7 µM (inactive) | 54.8 µM (inactive) | 19 µM (inactive) | 25.4 µM (inactive) | 17.1 | 26.4 µM (inactive) | 17.8 µM (inactive) | 27.9 µM (inactive)
O=C(NCCCN1CCN(CCCNC(=O)Nc2cccc3ccccc23)CC1)Nc1cccc2ccccc12 | 16.2 µM (inactive) | 14.4 µM (inactive) |  | 2.25 µM (inactive) | 84.9 µM (inactive) | 18.9 µM (inactive) | 17.3 µM (inactive) | 18.7 µM (inactive) | 16.8 µM (inactive) | 17.3 µM (inactive) | 11.1 µM (inactive) | 16.3 µM (inactive) | 17.3 µM (inactive) | 17.5 µM (inactive) | 13.8 µM (inactive) | 13.6 µM (inactive) | 16.6 | 8.49 µM (inactive) | 14 µM (inactive) | 18.6 µM (inactive)
CC/C(=C\c1ccc(OC)cc1)c1ccc(OC)cc1 | 45.7 µM (inactive) |  | > 100 µM (inactive) | > 100 µM (inactive) | > 100 µM (inactive) | 94.2 µM (inactive) | > 100 µM (inactive) | > 100 µM (inactive) | 37.5 µM (inactive) | 86.3 µM (inactive) | 60.8 µM (inactive) |  | > 100 µM (inactive) | > 100 µM (inactive) | 69.7 µM (inactive) | > 100 µM (inactive) | 74 | 70.6 µM (inactive) | > 100 µM (inactive) | > 100 µM (inactive)
COc1ccc2c(c1)CCN1CCCc3ccccc3C21 (configuration not stated) | 20.5 µM (inactive) | 50.1 µM (inactive) | 28.1 µM (inactive) | 23.1 µM (inactive) | 41.3 µM (inactive) | 38.4 µM (inactive) | 47.6 µM (inactive) | 91 µM (inactive) | 28.2 µM (inactive) | 22.3 µM (inactive) | 65.8 µM (inactive) |  | 36 µM (inactive) | 42.1 µM (inactive) | 46.2 µM (inactive) | 79.3 µM (inactive) | 37.6 | 22.4 µM (inactive) | > 100 µM (inactive) | 94.6 µM (inactive)
